# Test results published in patent publication US11787825B2 (priority 2021, dated 2023).
# Where two headings read alike, the source gives them in different places.
# What was measured:
# physchem = conditions: 25 °C, thermodynamic from solid
# [1] = fasted state simulated intestinal fluid (FaSSIF), fassif
# [2] = fed state simulated intestinal fluid (FeSSIF), fessif
# [3] = 0.1N HCL, 1.0% DMSO, 24-hour incubation at ambient temperature, maximum theoretical compound concentration 100 μM
# [4] = 1×PBS buffer (pH 7.4), 1.0% DMSO, 24-hour incubation at ambient temperature, maximum theoretical compound concentration 100 μM
Compound,solubility (physchem; [1]) [µg/mL],solubility (physchem; [2]) [µg/mL],pH 2 solubility [3] [μM],pH 7 solubility [4] [μM],solubility (physchem; fassif) [µg/mL],solubility (physchem; fessif) [µg/mL],pH 2 solubility (pH 2),pH 7 solubility (pH 7.4),pH 7 solubility
"CC(C)(C#Cc1ccc(-c2ccc(Cl)c3c(N(C(=O)CCCC(=O)OCOP(=O)(O)O)S(C)(=O)=O)nn(CC(F)(F)F)c23)c([C@H](Cc2cc(F)cc(F)c2)NC(=O)Cn2nc(C(F)(F)F)c3c2C(F)(F)[C@@H]2C[C@H]32)n1)S(C)(=O)=O [Compound 29, (phosphonooxy)methyl 5-(N-(4-chloro-7-(2-((S)-1-(2-((3bS,4aR)-5,5-difluoro-3-(trifluoromethyl)-3b,4,4a,5-tetrahydro-1H-cyclopropa[3,4]cyclopenta[1,2-c]pyrazol-1-yl)acetamido)-2-(3,5-difluorophenyl)ethyl)-6-(3-methyl-3-(methylsulfonyl)but-1-yn-1-yl)pyridin-3-yl)-1-(2,2,2-trifluoroethyl)-1H-indazol-3-yl)methylsulfonamido)-5-oxopentanoate]",268,130,2,92,–,–,–,–,–
CC(C)(C#Cc1ccc(-c2ccc(Cl)c3c(N(C(=O)CC4(CN(CC(=O)O)C(=O)OCOP(=O)(O)O)CC4)S(C)(=O)=O)nn(CC(F)(F)F)c23)c([C@H](Cc2cc(F)cc(F)c2)NC(=O)Cn2nc(C(F)(F)F)c3c2C(F)(F)[C@@H]2C[C@H]32)n1)S(C)(=O)=O [Compound 39],1190,3870,1,87,–,–,–,–,–
"CC(C)(C#Cc1ccc(-c2ccc(Cl)c3c(N(C(=O)Cc4ccccc4OP(=O)(O)O)S(C)(=O)=O)nn(CC(F)(F)F)c23)c([C@H](Cc2cc(F)cc(F)c2)NC(=O)Cn2nc(C(F)(F)F)c3c2C(F)(F)[C@@H]2C[C@H]32)n1)S(C)(=O)=O [Compound 45, 2-(2-(N-(4-chloro-7-(2-((S)-1-(2-((3bS,4aR)-5,5-difluoro-3-(trifluoromethyl)-3b,4,4a,5-tetrahydro-1H-cyclopropa[3,4]cyclopenta[1,2-c]pyrazol-1-yl)acetamido)-2-(3,5-difluorophenyl)ethyl)-6-(3-methyl-3-(methylsulfonyl)but-1-yn-1-yl)pyridin-3-yl)-1-(2,2,2-trifluoroethyl)-1H-indazol-3-yl)methylsulfonamido)-2-oxoethyl)phenyl dihydrogen phosphate]",–,–,–,–,456,129,1/1 μM,1/1 μM,–
"Cc1cc(CP(=O)(O)O)cc(OP(=O)(O)O)c1C(C)(C)CC(=O)N(c1nn(CC(F)(F)F)c2c(-c3ccc(C#CC(C)(C)S(C)(=O)=O)nc3[C@H](Cc3cc(F)cc(F)c3)NC(=O)Cn3nc(C(F)(F)F)c4c3C(F)(F)[C@@H]3C[C@H]43)ccc(Cl)c12)S(C)(=O)=O [Compound 56, (4-(4-(N-(4-chloro-7-(2-((S)-1-(2-((3bS,4aR)-5,5-difluoro-3-(trifluoromethyl)-3b,4,4a,5-tetrahydro-1H-cyclopropa[3,4]cyclopenta[1,2-c]pyrazolyl)acetamido)-2-(3,5-difluorophenyl)ethyl)-6-(3-methyl-3-(methylsulfonyl)but-1-ynyl)pyridin-3-yl)-1-(2,2,2-trifluoroethyl)-1H-indazol-3-yl)methylsulfonamido)-2-methyloxobutan-2-yl)-3-methyl-5-(phosphonooxy)benzyl)phosphonic acid]",–,–,–,–,> 10000,–,1/100 μM,1/100 μM,–
"Cc1cc(P(=O)(O)O)cc(OP(=O)(O)O)c1C(C)(C)CC(=O)N(c1nn(CC(F)(F)F)c2c(-c3ccc(C#CC(C)(C)S(C)(=O)=O)nc3[C@H](Cc3cc(F)cc(F)c3)NC(=O)Cn3nc(C(F)(F)F)c4c3C(F)(F)[C@@H]3C[C@H]43)ccc(Cl)c12)S(C)(=O)=O [Compound 57, (4-(4-(N-(4-Chloro-7-(2-((S)-1-(2-((3bS,4aR)-5,5-difluoro-3-(trifluoromethyl)-3b,4,4a,5-tetrahydro-111-cyclopropa[3,4]cyclopenta[1,2-c]pyrazol-1-yl)acetamido)-2-(3,5-difluorophenyl)ethyl)-6-(3-methyl-3-(methylsulfonyl)but-1-yn-1-yl)pyridin-3-yl)-1-(2,2,2-trifluoroethyl)-1H-indazol-3-yl)methylsulfonamido)-2-methyl-4-oxobutan-2-yl)-3-methyl-5-(phosphonooxy)phenyl)phosphonic acid]",–,–,–,–,7300,–,1/100 μM,1/100 μM,–
"CC(C)(C#Cc1ccc(-c2ccc(Cl)c3c(N(C(=O)CNC(=O)OCOP(=O)(O)O)S(C)(=O)=O)nn(CC(F)(F)F)c23)c([C@H](Cc2cc(F)cc(F)c2)NC(=O)Cn2nc(C(F)(F)F)c3c2C(F)(F)[C@@H]2C[C@H]32)n1)S(C)(=O)=O [Compound 35, (phosphonooxy)methyl (2-(N-(4-chloro-7-(2-((S)-1-(2-((3bS,4aR)-5,5-difluoro-3-(trifluoromethyl)-3b,4,4a,5-tetrahydro-111-cyclopropa[3,4]cyclopenta[1,2-c]pyrazol-1-yl)acetamido)-2-(3,5-difluorophenyl)ethyl)-6-(3-methyl-3-(methylsulfonyl)but-1-yn-1-yl)pyridin-3-yl)-1-(2,2,2-trifluoroethyl)-1H-indazol-3-yl)methylsulfonamido)-2-oxoethyl)carbamate]",–,–,2,48,883,–,–,–,–
"CN(CC(=O)N(c1nn(CC(F)(F)F)c2c(-c3ccc(C#CC(C)(C)S(C)(=O)=O)nc3[C@H](Cc3cc(F)cc(F)c3)NC(=O)Cn3nc(C(F)(F)F)c4c3C(F)(F)[C@@H]3C[C@H]43)ccc(Cl)c12)S(C)(=O)=O)C(=O)OCOP(=O)(O)O [Compound 37, (phosphonooxy)methyl (2-(N-(4-chloro-7-(2-((S)-1-(2-((3bS,4aR)-5,5-difluoro-3-(trifluoromethyl)-3b,4,4a,5-tetrahydro-111-cyclopropa[3,4]cyclopenta[1,2-c]pyrazol-1-yl)acetamido)-2-(3,5-difluorophenyl)ethyl)-6-(3-methyl-3-(methylsulfonyl)but-1-yn-1-yl)pyridin-3-yl)-1-(2,2,2-trifluoroethyl)-1H-indazol-3-yl)methylsulfonamido)-2-oxoethyl)(methyl)carbamate]",–,–,1,79,674,–,–,–,–
"CC(C)(C#Cc1ccc(-c2ccc(Cl)c3c(N(C(=O)/C=C/C(=O)O)S(C)(=O)=O)nn(CC(F)(F)F)c23)c([C@H](Cc2cc(F)cc(F)c2)NC(=O)Cn2nc(C(F)(F)F)c3c2C(F)(F)[C@@H]2C[C@H]32)n1)S(C)(=O)=O [Compound 1, (E)-4-(N-(4-chloro-7-(2-((S)-1-(2-((3bS,4aR)-5,5-difluoro-3-(trifluoromethyl)-3b,4,4a,5-tetrahydro-1H-cyclopropa[3,4]cyclopenta[1,2-c]pyrazol-1-yl)acetamido)-2-(3,5-difluorophenyl)ethyl)-6-(3-methyl-3-(methylsulfonyl)but-1-yn-1-yl)pyridin-3-yl)-1-(2,2,2-trifluoroethyl)-1H-indazol-3-yl)methylsulfonamido)-4-oxobut-2-enoic acid]",321,45,–,–,–,–,1/86 μM,–,1/86 μM
